Assay results: the NIST ThermoML archive (doi:10.1016/j.jct.2016.08.010)
Numbers after ± are expanded uncertainties.

Key:
[1] = xn = mol fraction of the nth substance listed; details: 100 kPa, Liquid; for speed of sound: Frequency=3 MHz, Sing-around technique in a fixed-path interferometer; for mass density: Vibrating tube method
[2] = excess molar enthalpy (molar enthalpy of mixing); xn = mol fraction of the nth substance listed; details: 298.15 K, 100 kPa, Liquid, Power-compensation calorimetry

## CCn1cc[n+](C)c1.F[B-](F)(F)F [1-ethyl-3-methylimidazolium tetrafluoroborate] + CCCCn1cc[n+](C)c1.F[B-](F)(F)F
[1]; 303.15 K, x2 = 0.4167
  speed of sound: 1588.7 ± 1.6 m/s
  mass density: 1231.1 ± 2 kg/m3
[1]; 303.15 K, x2 = 0.4759
  speed of sound: 1585.9 ± 1.6 m/s
  mass density: 1226.1 ± 2 kg/m3
[1]; 303.15 K, x2 = 0.5282
  speed of sound: 1583.3 ± 1.6 m/s
  mass density: 1222.2 ± 2 kg/m3
[1]; 303.15 K, x2 = 0.5742
  speed of sound: 1581 ± 1.7 m/s
  mass density: 1218.9 ± 2 kg/m3
[1]; 303.15 K, x2 = 0.6356
  speed of sound: 1577.7 ± 1.7 m/s
  mass density: 1214.9 ± 2 kg/m3
[1]; 303.15 K, x2 = 0.6835
  speed of sound: 1575.1 ± 1.7 m/s
  mass density: 1212.1 ± 2.1 kg/m3
[1]; 303.15 K, x2 = 0.7381
  speed of sound: 1572 ± 1.7 m/s
  mass density: 1209 ± 2.1 kg/m3
[1]; 303.15 K, x2 = 0.7892
  speed of sound: 1568.8 ± 1.7 m/s
  mass density: 1206.3 ± 2.1 kg/m3
[1]; 303.15 K, x2 = 0.8364
  speed of sound: 1565.8 ± 1.7 m/s
  mass density: 1203.9 ± 2.1 kg/m3
[1]; 303.15 K, x2 = 0.8932
  speed of sound: 1562 ± 1.7 m/s
  mass density: 1201 ± 2.1 kg/m3
[1]; 303.15 K, x2 = 0
  mass density: 1276.3 ± 2 kg/m3
[1]; 303.15 K, x2 = 0.0728
  mass density: 1267.5 ± 2 kg/m3
[1]; 303.15 K, x2 = 0.1143
  mass density: 1262.6 ± 2 kg/m3
[1]; 303.15 K, x2 = 0.148
  mass density: 1258.7 ± 2 kg/m3
[1]; 303.15 K, x2 = 0.1737
  mass density: 1255.7 ± 2 kg/m3
[1]; 303.15 K, x2 = 0.2204
  mass density: 1250.5 ± 2 kg/m3
[1]; 303.15 K, x2 = 0.2684
  mass density: 1245.3 ± 2 kg/m3
[1]; 303.15 K, x2 = 0.3155
  mass density: 1240.5 ± 2 kg/m3
[1]; 303.15 K, x2 = 0.3619
  mass density: 1236 ± 2 kg/m3
[1]; 308.15 K, x2 = 0
  speed of sound: 1596.2 ± 1.6 m/s
  mass density: 1272.1 ± 2 kg/m3
[1]; 308.15 K, x2 = 0.0728
  speed of sound: 1592.6 ± 1.6 m/s
  mass density: 1263.8 ± 2 kg/m3
[1]; 308.15 K, x2 = 0.1143
  speed of sound: 1590.6 ± 1.6 m/s
  mass density: 1259.1 ± 2 kg/m3
[1]; 308.15 K, x2 = 0.148
  speed of sound: 1589.1 ± 1.6 m/s
  mass density: 1255.3 ± 2 kg/m3
[1]; 308.15 K, x2 = 0.1737
  speed of sound: 1587.9 ± 1.6 m/s
  mass density: 1252.4 ± 2 kg/m3
[1]; 308.15 K, x2 = 0.2204
  speed of sound: 1585.7 ± 1.6 m/s
  mass density: 1247.4 ± 2 kg/m3
[1]; 308.15 K, x2 = 0.2684
  speed of sound: 1583.5 ± 1.6 m/s
  mass density: 1242.3 ± 2 kg/m3
[1]; 308.15 K, x2 = 0.3155
  speed of sound: 1581.3 ± 1.6 m/s
  mass density: 1237.6 ± 2 kg/m3
[1]; 308.15 K, x2 = 0.3619
  speed of sound: 1579.1 ± 1.6 m/s
  mass density: 1233.2 ± 2 kg/m3
[1]; 308.15 K, x2 = 0.4167
  speed of sound: 1576.6 ± 1.6 m/s
  mass density: 1228.3 ± 2 kg/m3
[1]; 308.15 K, x2 = 0.4759
  speed of sound: 1573.7 ± 1.6 m/s
  mass density: 1223.4 ± 2 kg/m3
[1]; 308.15 K, x2 = 0.5282
  speed of sound: 1571.1 ± 1.6 m/s
  mass density: 1219.4 ± 2 kg/m3
[1]; 308.15 K, x2 = 0.5742
  speed of sound: 1568.8 ± 1.7 m/s
  mass density: 1216.1 ± 2 kg/m3
[1]; 308.15 K, x2 = 0.6356
  speed of sound: 1565.6 ± 1.7 m/s
  mass density: 1212.1 ± 2 kg/m3
[1]; 308.15 K, x2 = 0.6835
  speed of sound: 1563 ± 1.7 m/s
  mass density: 1209.1 ± 2 kg/m3
[1]; 308.15 K, x2 = 0.7381
  speed of sound: 1559.8 ± 1.7 m/s
  mass density: 1206 ± 2.1 kg/m3
[1]; 308.15 K, x2 = 0.7892
  speed of sound: 1556.8 ± 1.7 m/s
  mass density: 1203.2 ± 2.1 kg/m3
[1]; 308.15 K, x2 = 0.8364
  speed of sound: 1553.8 ± 1.7 m/s
  mass density: 1200.6 ± 2.1 kg/m3
[1]; 308.15 K, x2 = 0.8932
  speed of sound: 1550 ± 1.7 m/s
  mass density: 1197.6 ± 2.1 kg/m3
[2]; x2 = 0.0714
  excess molar enthalpy: 0.00901 ± 0.00085 kJ/mol
[2]; x2 = 0.1234
  excess molar enthalpy: 0.0162 ± 0.0009 kJ/mol
[2]; x2 = 0.1781
  excess molar enthalpy: 0.024 ± 0.001 kJ/mol
[2]; x2 = 0.2396
  excess molar enthalpy: 0.0329 ± 0.0012 kJ/mol
[2]; x2 = 0.2944
  excess molar enthalpy: 0.0396 ± 0.0013 kJ/mol
[2]; x2 = 0.3468
  excess molar enthalpy: 0.045 ± 0.0014 kJ/mol
[2]; x2 = 0.3972
  excess molar enthalpy: 0.0489 ± 0.0014 kJ/mol
[2]; x2 = 0.4428
  excess molar enthalpy: 0.0513 ± 0.0015 kJ/mol
[2]; x2 = 0.4859
  excess molar enthalpy: 0.0526 ± 0.0015 kJ/mol
[2]; x2 = 0.5374
  excess molar enthalpy: 0.0526 ± 0.0015 kJ/mol
[2]; x2 = 0.5884
  excess molar enthalpy: 0.051 ± 0.0015 kJ/mol
[2]; x2 = 0.6291
  excess molar enthalpy: 0.0488 ± 0.0014 kJ/mol
[2]; x2 = 0.6724
  excess molar enthalpy: 0.0454 ± 0.0014 kJ/mol
[2]; x2 = 0.7172
  excess molar enthalpy: 0.0408 ± 0.0013 kJ/mol
[2]; x2 = 0.7639
  excess molar enthalpy: 0.0351 ± 0.0012 kJ/mol
[2]; x2 = 0.8109
  excess molar enthalpy: 0.0286 ± 0.0011 kJ/mol
[2]; x2 = 0.8642
  excess molar enthalpy: 0.0203 ± 0.001 kJ/mol
[2]; x2 = 0.9077
  excess molar enthalpy: 0.0137 ± 0.0009 kJ/mol
